IC50 data for 44 compounds are collected here from US12116343B2, “Inhibitors of APOL1 and methods of using same” (Vertex Pharmaceuticals Incorporated, priority 2020, dated 2024).

Molecules are shown by their SMILES. Where two headings read alike, the source gives them in different places.

This assay deals with T1, G1 APOL1 (Homo sapiens, UniProt O14791, I384M/S342G).
T1 construct: expressed in transfected cells
T1 sequence (O14791 28-398 S342G/I384M): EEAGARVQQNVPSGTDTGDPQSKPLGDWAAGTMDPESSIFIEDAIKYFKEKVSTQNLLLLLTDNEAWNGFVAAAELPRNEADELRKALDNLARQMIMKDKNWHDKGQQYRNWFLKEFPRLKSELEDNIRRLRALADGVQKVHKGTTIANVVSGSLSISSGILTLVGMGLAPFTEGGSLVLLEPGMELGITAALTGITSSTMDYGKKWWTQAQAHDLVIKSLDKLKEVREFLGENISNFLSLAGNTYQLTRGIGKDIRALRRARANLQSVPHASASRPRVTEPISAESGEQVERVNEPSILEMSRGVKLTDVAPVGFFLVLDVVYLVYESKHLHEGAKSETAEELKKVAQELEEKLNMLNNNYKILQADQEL
Kind of assay: Acute APOL1 Thallium Assay with inducible stable clones of HEK 293 cells. The format is cell-based. The settings on record: read-out: Thallium Assay (IC50). A digest of the protocol:
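Readout: Tl+-triggered fluorescence, FLIPR, reflecting potassium flux through APOL1 pores after cells take up an AM-ester thallium indicator. Cells: HEK T-Rex stable clone G1 DC3.25, APOL1 G1 induced by tetracycline, seeded 26000 per well.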

Setting [1] is: HEK 293 T-Rex cells expressing G1 APOL1.

With `C[C@@H](O)CNC(=O)[C@H]1C[C@@H](c2c(-c3ccc(F)cc3)[nH]c3c(F)cc(F)cc32)C1` [Compound 258], the IC50 (in general, the concentration needed to halve the response being measured) under setting [1] was more than 1000 nM. Take `O=C(N[C@H]1CCOC1)O[C@H]1C[C@H](c2c(-c3ccc(F)cc3)[nH]c3c(F)cc(F)cc32)C1` [Compound 381]: where the note is “Table 24, Compounds 287 to 465”, the half-maximal inhibitory concentration (IC50) was more than 1000 nM.

On to `O=C(N[C@H]1CC[C@H](O)C1)[C@H]1C[C@H](c2c(-c3ccc(F)cc3)[nH]c3c(F)cc(F)cc32)C1` [Compound 187], for which the IC50 under setting [1] is more than 1000 nM. As for `O=C(NCC1(O)CCC1)C1CC(Cc2c(-c3ccc(F)cc3)[nH]c3c(F)cc(F)cc23)C1` (centres unmarked) [Compound 322], the IC50 (Table 24, Compounds 287 to 465) was more than 1000 nM. With `CC(C)CC(NCC1CC(c2c(-c3ccc(F)cc3)[nH]c3c(F)cc(F)cc23)C1)C(N)=O` (centres unmarked) [Compound 441], the IC50 (Table 24, Compounds 287 to 465) was more than 1000 nM.

Take `O=C(NC[C@H]1C[C@H](c2c(-c3ccc(F)cc3)[nH]c3c(F)cc(F)cc32)C1)N[C@H]1CC[C@H](O)C1` [Compound 419]: for the setting “Table 24, Compounds 287 to 465”, the IC50 is more than 1000 nM. Take `O=C(CC1CC(c2c(-c3ccc(F)cc3)[nH]c3c(F)cc(F)cc23)C1)NC1(CO)CCC1` (centres unmarked) [Compound 452, 2-[3-[5,7-difluoro-2-(4-fluorophenyl)-1H-indol-3-yl]cyclobutyl]-N-[1-(hydroxymethyl)cyclobutyl]acetamide]: the half-maximal inhibitory concentration (IC50) (Table 24, Compounds 287 to 465) is more than 1000 nM. On the same count and under the same terms, next, `O=C(NC1CC1)O[C@H]1C[C@H](c2c(-c3ccc(F)cc3)[nH]c3c(F)cc(F)cc32)C1` [Compound 358]: 250 to 1000 nM; `O=C(NC1CC(O)C1)O[C@H]1C[C@H](c2c(-c3ccc(F)cc3)[nH]c3c(F)cc(F)cc32)C1` (some centres unmarked) [Compound 383]: more than 1000 nM. Consider `O=C(NCCO)NC[C@H]1C[C@H](c2c(-c3ccc(F)cc3)[nH]c3c(F)cc(F)cc32)C1` [Compound 393], for which the concentration for half-maximal inhibition (IC50) (Table 24, Compounds 287 to 465) is more than 1000 nM. For `CC(O)[C@H](CO)NC(=O)[C@H]1C[C@@H](c2c(-c3ccc(F)cc3)[nH]c3c(F)cc(F)cc32)C1` (some centres unmarked) [Compound 270], the half-maximal inhibitory concentration (IC50) under setting [1] is more than 1000 nM. The same measure, in the same setting: next, `NC(=O)C(CO)NC(=O)[C@H]1C[C@@H](c2c(-c3ccc(F)cc3)[nH]c3c(F)cc(F)cc32)C1` (some centres unmarked) [Compound 259]: more than 1000 nM. Take `O=C(Nc1ccc[nH]c1=O)C1CC(Cc2c(-c3ccc(F)cc3)[nH]c3c(F)cc(F)cc23)C1` (centres unmarked) [Compound 339]: the concentration for half-maximal inhibition (IC50) (Table 24, Compounds 287 to 465) is more than 1000 nM. On the same count and under the same terms, next, `CC[C@H](NCC1CC(c2c(-c3ccc(F)cc3)[nH]c3c(F)cc(F)cc23)C1)C(=O)NCC(F)(F)F` (some centres unmarked) [Compound 443]: more than 1000 nM; `O=C(NCc1ccoc1)C1CC(Cc2c(-c3ccc(F)cc3)[nH]c3c(F)cc(F)cc23)C1` (centres unmarked) [Compound 317]: more than 1000 nM. Consider `O=C1NCCC1NC(=O)[C@H]1C[C@@H](c2c(-c3ccc(F)cc3)[nH]c3c(F)cc(F)cc32)C1` (some centres unmarked) [Compound 268], for which, under setting [1], the IC50 is more than 1000 nM. As for `O=C(CNC[C@H]1C[C@H](c2c(-c3ccc(F)cc3)[nH]c3c(F)cc(F)cc32)C1)NC1CC1` [Compound 449], under “Table 24, Compounds 287 to 465”, the IC50 lay within 250 to 1000 nM. Same read-out and setting: next, `CC(O)(CO)CNC(=O)O[C@H]1C[C@H](c2c(-c3ccc(F)cc3)[nH]c3c(F)cc(F)cc32)C1` (mixture of isomers) [Compound 378]: more than 1000 nM; `O=C(CN[C@H]1C[C@H](c2c(-c3ccc(F)cc3)[nH]c3c(F)cc(F)cc32)C1)NCO` [Compound 289]: 250 to 1000 nM. On the same count and under the same terms, next, `O=C(NCC1(CO)CC1)C1CC(Cc2c(-c3ccc(F)cc3)[nH]c3c(F)cc(F)cc23)C1` (centres unmarked) [Compound 323]: more than 1000 nM; `O=C(NC1(CO)CC(F)(F)C1)C1CC(Cc2c(-c3ccc(F)cc3)[nH]c3c(F)cc(F)cc23)C1` (centres unmarked) [Compound 309]: more than 1000 nM.

With `CC1(C(=O)NCCO)CC(c2c(-c3ccc(F)cc3)[nH]c3c(F)cc(F)cc23)C1` (mixture of isomers) [Compound 283], the IC50 under setting [1] was in the range of 250 to 1000 nM.

Turning to `O=C(N[C@H]1CCNC1=O)N[C@H]1C[C@H](c2c(-c3ccc(F)cc3)[nH]c3c(F)cc(F)cc32)C1` [Compound 297], the IC50 (Table 24, Compounds 287 to 465) is more than 1000 nM. In the case of `C[C@H](CO)NC(=O)CNC(=O)[C@H]1C[C@H](c2c(-c3ccc(F)cc3)[nH]c3c(F)cc(F)cc32)C1` [Compound 232], the concentration for half-maximal inhibition (IC50) under setting [1] is more than 1000 nM. As for `CCNC(=O)N1CC(c2c(-c3ccc(F)cc3)[nH]c3c(F)cc(F)cc23)C1` [Compound 464, 3-[5,7-difluoro-2-(4-fluorophenyl)-1H-indol-3-yl]-N-ethyl-azetidine-1-carboxamide], under “Table 24, Compounds 287 to 465”, the half-maximal inhibitory concentration (IC50) lay in the range of 250 to 1000 nM.

As for `O=C(NCC1(O)CCCC1)C1CC(Cc2c(-c3ccc(F)cc3)[nH]c3c(F)cc(F)cc23)C1` (centres unmarked) [Compound 315], where the note is “Table 24, Compounds 287 to 465”, the half-maximal inhibitory concentration (IC50) was more than 1000 nM. On the same count and under the same terms, next, `O=C(N[C@H]1CCNC1=O)O[C@H]1C[C@H](c2c(-c3ccc(F)cc3)[nH]c3c(F)cc(F)cc32)C1` [Compound 371]: more than 1000 nM. In the case of `CN(CC1CC(c2c(-c3ccc(F)cc3)[nH]c3c(F)cc(F)cc23)C1)C(=O)NCCO` (centres unmarked) [Compound 431], the IC50 (Table 24, Compounds 287 to 465) is more than 1000 nM. On the same count and under the same terms, next, `CNC(=O)N(C)CC1CC(c2c(-c3ccc(F)cc3)[nH]c3c(F)cc(F)cc23)C1` (centres unmarked) [Compound 428]: more than 1000 nM.

Consider `Cn1cnc(CNC(=O)C2(C)CC(c3c(-c4ccc(F)cc4)[nH]c4c(F)cc(F)cc34)C2)c1` (mixture of isomers) [Compound 282], for which the concentration for half-maximal inhibition (IC50) under setting [1] was 250 to 1000 nM. Turning to `C[C@H](NCC1CC(c2c(-c3ccc(F)cc3)[nH]c3c(F)cc(F)cc23)C1)C(N)=O` (some centres unmarked) [Compound 439], the half-inhibitory concentration (IC50) (Table 24, Compounds 287 to 465) is more than 1000 nM.

Consider `NC(=O)CNC(=O)O[C@H]1C[C@H](c2c(-c3ccc(F)cc3)[nH]c3c(F)cc(F)cc32)C1` [Compound 355], for which the half-maximal inhibitory concentration (IC50) (Table 24, Compounds 287 to 465) was 250 to 1000 nM.

Take `Cc1c(CNC(=O)C2CC(Cc3c(-c4ccc(F)cc4)[nH]c4c(F)cc(F)cc34)C2)cnn1C` (centres unmarked) [Compound 333]: where the note is “Table 24, Compounds 287 to 465”, the half-maximal inhibitory concentration (IC50) was more than 1000 nM. On the same count and under the same terms, next, `O=C(CN[C@H]1C[C@H](c2c(-c3ccc(F)cc3)[nH]c3c(F)cc(F)cc32)C1)NC1CC1` [Compound 293]: more than 1000 nM. Still for that read-out and setting: next, `C[C@@H](O)CNC(=O)C1CC(Cc2c(-c3ccc(F)cc3)[nH]c3c(F)cc(F)cc23)C1` (some centres unmarked) [Compound 307]: more than 1000 nM.

For `C[C@H](CO)NC(=O)O[C@H]1C[C@H](c2c(-c3ccc(F)cc3)[nH]c3c(F)cc(F)cc32)C1` [Compound 354], the half-maximal inhibitory concentration (IC50) (Table 24, Compounds 287 to 465) lay within 250 to 1000 nM. Consider `O=C(CC1CC(c2c(-c3ccc(F)cc3)[nH]c3c(F)cc(F)cc23)C1)N[C@@H](CO)C(F)(F)F` (some centres unmarked) [Compound 462], for which, under “Table 24, Compounds 287 to 465”, the half-maximal inhibitory concentration (IC50) is more than 1000 nM. Same read-out and setting: next, `O=C(NCc1cnn(CC(F)(F)F)c1)C1CC(Cc2c(-c3ccc(F)cc3)[nH]c3c(F)cc(F)cc23)C1` (centres unmarked) [Compound 331]: more than 1000 nM; `O=C(NCc1ccc(=O)[nH]c1)C1CC(Cc2c(-c3ccc(F)cc3)[nH]c3c(F)cc(F)cc23)C1` (centres unmarked) [Compound 346]: more than 1000 nM.

With `CC1(O)CC(NC(=O)NC[C@H]2C[C@H](c3c(-c4ccc(F)cc4)[nH]c4c(F)cc(F)cc43)C2)C1` (some centres unmarked) [Compound 401], the half-inhibitory concentration (IC50) (Table 24, Compounds 287 to 465) is more than 1000 nM. On the same count and under the same terms, next, `CC(C)C[C@@H](CO)NC(=O)C1CC(Cc2c(-c3ccc(F)cc3)[nH]c3c(F)cc(F)cc23)C1` (some centres unmarked) [Compound 347]: more than 1000 nM. As to `CC(C)(CO)NC(=O)[C@H]1C[C@@H](c2c(-c3ccc(F)cc3)[nH]c3c(F)cc(F)cc32)C1` [Compound 256], under setting [1], the concentration for half-maximal inhibition (IC50) is 250 to 1000 nM. Take `COCCNC(=O)CC1CC(c2c(-c3ccc(F)cc3)[nH]c3c(F)cc(F)cc23)C1` (centres unmarked) [Compound 460]: for the setting “Table 24, Compounds 287 to 465”, the IC50 is more than 1000 nM. On the same count and under the same terms, next, `O=C(NCc1ccco1)O[C@H]1C[C@H](c2c(-c3ccc(F)cc3)[nH]c3c(F)cc(F)cc32)C1` [Compound 379]: more than 1000 nM.
